The series in a line: Decomposition products of NK-104 and fluvastatin in aqueous solution of pH 3, analyzed by HPLC. The series is classed as physicochemical. The note with it: aqueous solution pH 3, 40° C. The protocol: Decomposition products of NK-104 were analyzed by HPLC after incubation for two days at 40° C. in aqueous solution of pH 3. […] The decomposition products of fluvastatin were also analyzed for comparison.
The conditions under which NK-104 and Fluvastatine decomposition products were analyzed are as follows:
HPLC system: Type LC-10 (Shimadz, Japan)
Column: DEVELOSIL ODS-HG-5 (NOMURA CHEM., Japan)
Mobil Phase: MeOH/0.02 mol/L phosphate buffer (pH 3)=7/3
Sample: NK-104 or fluvastatin/pH 3/40° C., 2 days
Detector: SPD-MLOAVP, UV 245 mm

From patent US6465477B1, “Stable pharmaceutical composition” (Kowa Company, Ltd., priority 1997, dated 2002) come the findings set out here.

`O=C(O)C[C@H](O)C[C@H](O)/C=C/c1c(C2CC2)nc2ccccc2c1-c1ccc(F)cc1` [NK-104, (E)-3,5-dihydroxy-7-[4′-4 ″-fluorophehyl-2 ′-cyclopropyl-quinolin-3′-yl]-6-heptenoic acid]: the “Quantity of decomposition products” value (2 days) is “a small quantity of one type of decomposition product”. Further, the “Decomposition products (types)” value (two days) is on record as “a single product, a lactonized form of NK-104”.
